Data taken from paper PMC7948497, “Iron uptake mediated by the plant-derived chelator nicotianamine in the small intestine” (The Journal of Biological Chemistry, 2020).

Target: T1, hPAT1 (SLC36A1) (Homo sapiens, UniProt Q7Z2H8)
T1 construct: full open reading frame amplified from human small intestine RNA, pTNT vector, cRNA injected into Xenopus laevis oocytes; 476 residues, about 53 kDa
Assay: two-electrode voltage clamp of Xenopus oocytes, substrate-induced current; inhibition of NA-Fe(II)-elicited current
Assay type: cell-based
Conditions: pH 6.0, -60 mV; 0.5 mM NA-Fe(II) (figure legend; Methods say 1 mM)

T1 sequence (Q7Z2H8 whole entry): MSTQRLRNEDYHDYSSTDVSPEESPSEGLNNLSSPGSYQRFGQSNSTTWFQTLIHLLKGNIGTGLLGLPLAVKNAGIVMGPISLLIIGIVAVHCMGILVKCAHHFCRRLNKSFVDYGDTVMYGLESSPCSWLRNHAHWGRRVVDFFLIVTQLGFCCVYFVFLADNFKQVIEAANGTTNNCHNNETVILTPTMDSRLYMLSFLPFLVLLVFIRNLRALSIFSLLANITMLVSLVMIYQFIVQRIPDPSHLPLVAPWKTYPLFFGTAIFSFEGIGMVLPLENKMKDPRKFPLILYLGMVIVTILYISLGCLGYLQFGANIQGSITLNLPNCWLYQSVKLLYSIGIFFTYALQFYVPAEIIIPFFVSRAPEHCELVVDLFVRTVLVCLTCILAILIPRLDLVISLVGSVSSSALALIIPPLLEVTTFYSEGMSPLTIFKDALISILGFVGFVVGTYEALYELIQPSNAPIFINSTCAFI

N[C@@H](Cc1c[nH]c2ccc(O)cc12)C(=O)O [5-hydroxytryptophan]
% of original current remaining at 5 mM: 30.1%
